Measurements from US20150045291A1, “LIPOPEPTIDE CONJUGATES COMPRISING SPHINGOLIPID AND HIV GP41 DERIVED PEPTIDES” (priority 2012, published 2015).
Read-outs that look alike come from different tables or passages of the source. Starred links: 1 amine or outer side, 2 acyl side, 3 side chain; linkers in the order of their positions; H or OH if unused. Residues, ends and D or L forms follow the SMILES beside them. Groups on a side chain read outwards from the residue. *: point of attachment. Cholesteryloxycarbonyl = CC(C)CCC[C@@H](C)[C@H]1CC[C@H]2[C@@H]3CC=C4C[C@@H](OC(=O)*)CC[C@]4(C)[C@H]3CC[C@]12C; X1 = Cc1c(C)c2c(c(C)c1OC(=O)CCC(=O)*)CCC(C)(CCCC(C)CCCC(C)CCCC(C)C)O2; Sphinganine = CCCCCCCCCCCCCCC[C@@H](O)[C@H](CO)N*; X2 = CCCCCCCCCCCCC/C=C/[C@@H](O)[C@H](CO)N*; CO = O=C([*:1])[*:2]

Columns and labels:
[1] = Hydrophobicity by RP-HPLC; format: physicochemical; settings: RP-HPLC retention time, analytical C2 column, CH3CN/H2O gradient
Experimental: Peptide synthesis, lipid moiety conjugation, and fluorescent labeling. Peptides were synthesized on Rink Amide MBHA resin by using the F-moc strategy. Several peptides contain a lysine residue at their C-terminus with an MTT side-chain protecting group (Nova-biochem AG, Switzerland) that requires a special deprotection step under mild acidic conditions (2×1 min of 5% trifluoroacetic acid (TFA) in dichloromethane (DCM) and 30 min of 1% TFA in DCM). This enables the conjugation of a lipid moiety or a fluorescent probe to the C-terminus. The chemical synthesis schemes of the following compounds 1-5 are described in FIG. 6. Conjugation of hexadecanoic (palmitic) acid (C16) or α-Tocopherol succinate (Sigma Chemical Co., Israel) to the N-terminus of selected peptides (compound 2 and compound 4, respectively) was performed using standard F-moc chemistry. Conjugation of cholesterol to the N-terminus of a peptide (compound 3) was performed by adding 10 equivalents of cholesteryl chloroformate (Alfa Aesar, USA) dissolved in DCM, together with 3 equivalents of triethyl amine to the peptides' resin. Conjugation of D-erythro-Dihydrosphingosine (D-erythro sphinganine), (Matreya, LCC, USA) to the N- or C-terminus of a peptide (compound 1) was performed as followed: first, 10 equivalents of N,N′-Disuccinimidyl carbonate (DSC) (Chem-Impex Internatinal, USA) and 20 equivalents of N,N-Diisopropylethylamine (DIEA) were added to the resin for 2 hours in dimethylformamide (DMF). Then, 2 equivalents of sphinganine and 2 equivalents of DIEA were added for overnight incubation in DMF anhydrous. The conjugation of D-erythro-Sphingosine (Matreya, LCC, USA) to the peptides (compound 5) was performed as described for compound 1. Addition of NBD-F, fluoride (4-fluoro-7-nitrobenzofurazan) (NBD) fluorescent probe (Biotium, USA) to the N- or C-terminus of selected peptides was performed in DMF for 1 hour. All peptides were cleaved from the resin by a TFA:DDW:TES (93.1:4.9:2 (v/v)) mixture, and purified by reverse-phase high-performance liquid chromatography (RP-HPLC) to >95% homogeneity. The molecular weight of the peptides was confirmed by platform LCA electrospray mass spectrometry. For hydrophobicity tests the peptides were eluted with a flow rate of 0.6 ml/min using a two-step linear gradient from CH3CN/H2O 20:80 v/v to CH3CN/H2O 95:5 v/v in 30 min and from CH3CN/H2O 95:5 v/v to CH3CN/H2O 95:5 in 10 min v/v on an analytical C2 column (7 μm particle size, pore size 100 Å) from Nucleosil.
Hydrophobicity (min): Hydrophobicity was analyzed by RP-HPLC. The retention time of each compound is presented.

[2] = system: fully infectious HIV-1 HXB2
[3] = Secondary structure determination by circular dichroism; format: physicochemical; settings: percentage of α-helical structure, CD, 10 μM peptide in HEPES buffer 5 mM pH 7.4, 25° C.
Experimental: Secondary structure determination. Circular Dichroism (CD) measurements were performed by using an AppliedPhoto physics spectropolarimeter. The spectra were scanned using a thermostatic quartz cuvette with a path length of 1 mm. Wavelength scans were performed at 25° C.; the average recording time was 15 sec, in 1-nm steps, in the wavelength range of 190-260 nm. Each peptide concentration was 10 μM in HEPES buffer (5 mM, pH 7.4).
Helicity (%): The percentage of α-helical structure was determined as described in the section of Materials and Methods.

[4] = fully infectious HIV-1 system (Table 2)
[5] = read-out: Virus-cell fusion IC50, TZM-bl cells infected with fully contagious HIV, mean±s.d., n=3
[6] = read-out: IC50 (inhibitory concentration at 50% infectivity), TZM-bl cells, fully contagious HXB2 HIV-1

SMILES | Hydrophobicity [1] | IC50 [2, 4] | IC50 [2, 5] | Helicity (%) [3] | further results
CC[C@H](C)[C@H](NC(=O)CNC(=O)[C@H](Cc1c[nH]c2ccccc12)NC(=O)[C@@H](NC(=O)[C@@H](NC(=O)[C@H](CC(C)C)NC(=O)[C@H](CCC(N)=O)NC(=O)[C@H](CC(C)C)NC(=O)[C@H](CC(C)C)NC(=O)O[C@H]1CC[C@@]2(C)C(=CC[C@H]3[C@@H]4CC[C@H]([C@H](C)CCCC(C)C)[C@@]4(C)CC[C@@H]32)C1)[C@@H](C)O)C(C)C)C(=O)N[C@@H](CCCCN)C(=O)N[C@@H](CCC(N)=O)C(=O)N[C@@H](CC(C)C)C(=O)N[C@@H](CCC(N)=O)C(=O)N[C@@H](C)C(=O)N[C@@H](CCCNC(=N)N)C(=O)N[C@H](C(=O)N[C@@H](CC(C)C)C(N)=O)[C@@H](C)CC [Cholesterol-N17] (Cholesteryloxycarbonyl-LLQLTVWGIKQLQARIL-NH2) | 28.9 min | > 4000 nM | > 4000 nM | <10% | 
CC[C@H](C)[C@H](NC(=O)CNC(=O)[C@H](Cc1c[nH]c2ccccc12)NC(=O)[C@@H](NC(=O)[C@@H](NC(=O)[C@H](CC(C)C)NC(=O)[C@H](CCC(N)=O)NC(=O)[C@H](CC(C)C)NC(=O)[C@@H](N)CC(C)C)[C@@H](C)O)C(C)C)C(=O)N[C@@H](CCCCN)C(=O)N[C@@H](CCC(N)=O)C(=O)N[C@@H](CC(C)C)C(=O)N[C@@H](CCC(N)=O)C(=O)N[C@@H](C)C(=O)N[C@@H](CCCNC(=N)N)C(=O)N[C@H](C(=O)N[C@@H](CC(C)C)C(N)=O)[C@@H](C)CC [N17, LLQLTVWGIKQLQARIL] (H-LLQLTVWGIKQLQARIL-NH2; C-terminus assumed) | 18.2 min | > 4000 nM | > 4000 nM | 20% | Inhibiting viral infectivity (in words) ([2]; up to 4 μM, the maximal concentration tested): not active
CCCCCCCCCCCCCCC[C@@H](O)[C@H](CO)NC(=O)N[C@@H](CC(C)C)C(=O)N[C@@H](CC(C)C)C(=O)N[C@@H](CCC(N)=O)C(=O)N[C@@H](CC(C)C)C(=O)N[C@H](C(=O)N[C@H](C(=O)N[C@@H](Cc1c[nH]c2ccccc12)C(=O)NCC(=O)N[C@H](C(=O)N[C@@H](CCCCN)C(=O)N[C@@H](CCC(N)=O)C(=O)N[C@@H](CC(C)C)C(=O)N[C@@H](CCC(N)=O)C(=O)N[C@@H](C)C(=O)N[C@@H](CCCNC(=N)N)C(=O)N[C@H](C(=O)N[C@@H](CC(C)C)C(=O)N[C@@H](CCCCN)C(N)=O)[C@@H](C)CC)[C@@H](C)CC)C(C)C)[C@@H](C)O [Sphing-N17K, Sphinganine-LLQLTVWGIKQLQARILK] ({Sphinganine-CO}-LLQLTVWGIKQLQARILK-NH2) |  | 118 ± 18 nM |  |  | IC50 [2, 6]: 116 nM
CCCCCCCCCCCCCCC[C@@H](O)[C@H](CO)NC(=O)N[C@@H](CC(C)C)C(=O)N[C@@H](CCC(=O)O)C(=O)N[C@@H](CCC(N)=O)C(=O)N[C@@H](CC(C)C)C(=O)N[C@@H](CO)C(=O)N[C@H](C(=O)N[C@@H](Cc1c[nH]c2ccccc12)C(=O)NCC(=O)N[C@@H](CO)C(=O)N[C@@H](CCCCN)C(=O)N[C@@H](CCC(N)=O)C(=O)N[C@@H](CC(N)=O)C(=O)N[C@@H](CCC(N)=O)C(=O)N[C@@H](C)C(=O)N[C@@H](CCCNC(=N)N)C(=O)N[C@@H](CCCNC(=N)N)C(=O)N[C@@H](CC(C)C)C(N)=O)C(C)C [Sphing-N17mut (a, d)] ({Sphinganine-CO}-LEQLSVWGSKQNQARRL-NH2) |  | > 4000 nM |  |  | 
CCCCCCCCCCCCCCC[C@@H](O)[C@H](CO)NC(=O)N[C@@H](CCC(=O)O)C(=O)N[C@@H](CC(C)C)C(=O)N[C@@H](CCC(N)=O)C(=O)N[C@@H](CC(C)C)C(=O)N[C@H](C(=O)N[C@@H](CCC(N)=O)C(=O)N[C@@H](Cc1c[nH]c2ccccc12)C(=O)N[C@@H](CCCCN)C(=O)N[C@H](C(=O)N[C@@H](CCCCN)C(=O)N[C@@H](CCC(N)=O)C(=O)N[C@@H](CC(C)C)C(=O)N[C@@H](CC(C)C)C(=O)N[C@@H](C)C(=O)N[C@@H](CCCNC(=N)N)C(=O)N[C@H](C(=O)N[C@@H](CC(C)C)C(=O)N[C@@H](CCCCN)C(N)=O)[C@@H](C)CC)[C@@H](C)CC)[C@@H](C)O [Sphing-N17mut (e, g) K, Sphinganine-ELQLTQWKIKQLLARILK] ({Sphinganine-CO}-ELQLTQWKIKQLLARILK-NH2) |  | 120 ± 30 nM |  |  | 
CCCCCCCCCCCCCCC[C@@H](O)[C@H](CO)NC(=O)N[C@@H](CC(C)C)C(=O)N[C@@H](CCC(N)=O)C(=O)N[C@@H](C)C(=O)N[C@@H](CCCNC(=N)N)C(=O)N[C@H](C(=O)N[C@@H](CC(C)C)C(=O)N[C@@H](C)C(=O)N[C@H](C(=O)N[C@@H](CCC(=O)O)C(=O)N[C@@H](CCCNC(=N)N)C(=O)N[C@@H](Cc1ccc(O)cc1)C(=O)N[C@@H](CC(C)C)C(=O)N[C@@H](CCCCN)C(=O)N[C@@H](CC(=O)O)C(=O)N[C@@H](CCC(N)=O)C(=O)N[C@@H](CCC(N)=O)C(=O)N[C@@H](CC(C)C)C(N)=O)C(C)C)[C@@H](C)CC [Sphing-ShN17, Sphinganine-LQARILAVERYLKDQQL] ({Sphinganine-CO}-LQARILAVERYLKDQQL-NH2) |  | 886 ± 102 nM |  |  | 
CCCCCCCCCCCCC/C=C/[C@@H](O)[C@H](CO)NC(=O)N[C@@H](CC(C)C)C(=O)N[C@@H](CC(C)C)C(=O)N[C@@H](CCC(N)=O)C(=O)N[C@@H](CC(C)C)C(=O)N[C@H](C(=O)N[C@H](C(=O)N[C@@H](Cc1c[nH]c2ccccc12)C(=O)NCC(=O)N[C@H](C(=O)N[C@@H](CCCCN)C(=O)N[C@@H](CCC(N)=O)C(=O)N[C@@H](CC(C)C)C(=O)N[C@@H](CCC(N)=O)C(=O)N[C@@H](C)C(=O)N[C@@H](CCCNC(=N)N)C(=O)N[C@H](C(=O)N[C@@H](CC(C)C)C(N)=O)[C@@H](C)CC)[C@@H](C)CC)C(C)C)[C@@H](C)O [Sphingosine-N17, Sphingosine-LLQLTVWGIKQLQARIL] ({X2-CO}-LLQLTVWGIKQLQARIL-NH2) |  |  |  |  | IC50 [2, 6]: 208 nM
CC[C@H](C)[C@H](NC(=O)CNC(=O)[C@H](Cc1c[nH]c2ccccc12)NC(=O)[C@@H](NC(=O)[C@@H](NC(=O)[C@H](CC(C)C)NC(=O)[C@H](CCC(N)=O)NC(=O)[C@H](CC(C)C)NC(=O)[C@H](CC(C)C)NC(=O)CCC(=O)Oc1c(C)c(C)c2c(c1C)CCC(C)(CCCC(C)CCCC(C)CCCC(C)C)O2)[C@@H](C)O)C(C)C)C(=O)N[C@@H](CCCCN)C(=O)N[C@@H](CCC(N)=O)C(=O)N[C@@H](CC(C)C)C(=O)N[C@@H](CCC(N)=O)C(=O)N[C@@H](C)C(=O)N[C@@H](CCCNC(=N)N)C(=O)N[C@H](C(=O)N[C@@H](CC(C)C)C(N)=O)[C@@H](C)CC (stereo partly shown) [Tocopherol-N17] (X1-LLQLTVWGIKQLQARIL-NH2) | 28.9 min | > 4000 nM | > 4000 nM | <10% | 
CCCCCCCCCCCCCCC[C@@H](O)[C@H](CO)NC(=O)NCCCC[C@H](NC(=O)[C@@H](NC(=O)[C@H](CCC(=O)O)NC(=O)[C@H](CCCNC(=N)N)NC(=O)[C@H](CC(=O)O)NC(=O)[C@H](Cc1c[nH]c2ccccc12)NC(=O)[C@H](CCC(=O)O)NC(=O)[C@H](CCSC)NC(=O)[C@H](Cc1c[nH]c2ccccc12)NC(=O)[C@@H](N)[C@@H](C)O)[C@@H](C)CC)C(N)=O [Truncated-Sphing, TWMEWDREIK-Sphinganine] (H-TWMEWDREIK([CO-Sphinganine])-NH2; N-terminus assumed) |  |  |  |  | IC50 ([2]; read-out: IC50 (nM), […], fully infectious HIV-1 system (Table 3)): 1330 ± 270 nM; IC90 ([2]; read-out: IC90 (nM), […], fully infectious HIV-1 system (Table 3)): 2480 ± 320 nM
CCCCCCCCCCCCCCC[C@@H](O)[C@@H](N)CO [sphinganine, D-erythro-Dihydrosphingosine, reference compound] |  |  |  |  | Effect on viral infectivity / fusion (in words) ([2]; at / up to 1 μM): did not affect viral infectivity
